Measured values as given in patent US6734199B1, “Substituted benzylthiazolidine-2, 4-dione derivatives” (Kyorin Pharmaceutical Co., Ltd., priority 1999, dated 2004).
Like-named read-outs stand apart in the source and are kept apart here.

What was measured:
[1] = biological target: T1, human type PPAR α ligand-binding domain fused with yeast transcription factor DNA-binding domain (Homo sapiens, UniProt Q07869); assay: Test of transactivation on peroxisome proliferator-activated receptor α (GAL4 DNA-binding domain/PPAR ligand-binding domain reporter in CHO cells)
T1 sequence (Q07869 239-466 limits assumed): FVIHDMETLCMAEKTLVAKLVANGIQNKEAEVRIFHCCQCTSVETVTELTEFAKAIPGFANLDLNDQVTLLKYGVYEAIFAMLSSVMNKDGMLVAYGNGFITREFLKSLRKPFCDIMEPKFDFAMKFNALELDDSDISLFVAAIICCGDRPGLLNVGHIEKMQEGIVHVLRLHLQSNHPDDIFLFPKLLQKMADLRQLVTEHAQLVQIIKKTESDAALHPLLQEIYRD
Method: (§1) Test of Transactivation on Peroxisome Proliferator-activated Receptors α and γ
(§2) After 24 hours, CAT activity and β-galactosidase activity were measured.

[2] = biological target: T2, human type PPAR γ ligand-binding domain fused with yeast transcription factor DNA-binding domain (Homo sapiens, UniProt P37231); assay: Test of transactivation on peroxisome proliferator-activated receptor γ (GAL4 DNA-binding domain/PPAR ligand-binding domain reporter in CHO cells)
T2 sequence (P37231 238-503 limits assumed): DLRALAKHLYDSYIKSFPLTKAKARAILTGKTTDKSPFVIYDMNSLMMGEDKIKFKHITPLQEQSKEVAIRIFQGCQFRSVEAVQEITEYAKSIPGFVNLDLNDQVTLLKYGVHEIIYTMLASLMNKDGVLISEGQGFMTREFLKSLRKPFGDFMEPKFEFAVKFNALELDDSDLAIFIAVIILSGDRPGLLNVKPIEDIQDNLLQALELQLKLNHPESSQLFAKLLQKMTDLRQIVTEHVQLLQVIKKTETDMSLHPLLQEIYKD
Method: as §1, §2

Structure (SMILES)	melting point [°C]	EC50 ([1]; read-out: Transactivation action PPARα EC50, CHO cells, 24 hours, CAT activity with β-galactosidase internal standard) [nM]	EC50 [1] [nM]	EC50 [2] [nM]
COc1ccc(CC2SC(=O)NC2=O)cc1C(=O)NCc1ccc(Oc2ccccc2)cc1 (stereo not drawn) (hydrate or solvate) [Example 3]	87 to 89	–	–	–
CCCCC/C=C\C/C=C\C=C\[C@@H](O)C/C=C\CCCC(=O)O [(8S)-HETE, reference compound]	–	1300	–	–
COc1ccc(CC2SC(=O)NC2=O)cc1C(=O)NCc1ccc(OCc2ccccc2)cc1 (stereo not drawn) [Example 1]	131 to 132.5	–	440	–
COc1ccc(CC2SC(=O)NC2=O)cc1C(=O)NCc1ccc(-c2ccccc2)cc1 (stereo not drawn) [Example 2, N-[(Biphenyl-4-yl)Methyl]-5-[(2.4-Dioxothiazolidin-5-yl)Methyl]-2-Methloybenzamide]	170.5 to 172	–	630	6800
COc1ccc(CC2SC(=O)NC2=O)cc1C(=O)NCc1ccc(Oc2ccccc2)cc1 (stereo not drawn) [Example 3]	–	–	240	240
